# Key:
# MCF-7ADR = test: Radiosensitizing activity of MDM2 antagonistic compounds, MCF-7ADR cells; type: cell-based, human; conditions: MCF-7 ADR cells (mutant p53, high GST content)
# Method: Biologic assay for radiosensitizing activity of MDM2 antagonistic compounds: Human tumor cell lines containing wild-type p53 and low levels of GST, such as MCF7 (breast carcinoma) or mutant p53 and a high GST content, such as MCF7 ADR (adriamycin-resistant breast carcinoma) are cultivated in RPMI medium, supplemented with 10% fetal calf serum to a semi-confluent state.
# In order to determine the radiosensitizing activity of selected compounds on these cells a minimal toxic dose was determined as 2Gy with a ^137Cesium source at room temperature. Following irradiation of monolayer cells in exponential growth phase with 2 Gy, cells were incubated with various concentrations of the selected compounds for 2-6 h. Cells were trypsinized and seeded in appropriate dilutions into 6 well plates. Surviving cells were trypsinized after 12-13 days and cell number was determined by staining with trypane blue for living/dead cells. The protocol was established according to Khil et al., 1996, Int. J. Rad. Oncol. Biol. Phys. 34, 375-380.
# HT29 cytosolic GST = HT29 cytosolic GST (Homo sapiens, UniProt P09211); test: Spectrophotometric GST activity analysis; type: biochemical; conditions: inhibition of GST activity in HT29 cells
# HT29 cytosolic GST, sequence (P09211 2-210): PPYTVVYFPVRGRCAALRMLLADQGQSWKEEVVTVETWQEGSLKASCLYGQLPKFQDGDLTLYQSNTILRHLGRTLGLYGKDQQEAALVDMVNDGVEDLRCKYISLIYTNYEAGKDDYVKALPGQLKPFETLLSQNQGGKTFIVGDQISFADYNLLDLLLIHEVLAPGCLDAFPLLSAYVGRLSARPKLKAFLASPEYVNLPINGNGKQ
# Method: GST catalyzes the conjugation of CDNB with glutathione and results in a CDNB-glutathione product with a strong molar absorption at 340 nm. The change of absorption is monitored for 5 min.
# 1 x 10^6 cells are collected and washed once with ice-cold phosphate-buffered saline at 1000 rpm for 10 min at 4°C. Cell pellets are resuspended in 200 µl ice-cold phosphate-buffered saline, and are sonicated for 2 min on ice. The sonicate is then centrifuged at 11750 g, 4°C for 15 min in an Eppendorf Centrifuge, and the supernatant is assayed for GST activity.
Compound,radiosensitization (MCF-7ADR),IC-50 (HT29 cytosolic GST)
"O=C(O)COc1ccc(C(=O)/C=C/c2ccc(Cl)c(Cl)c2)cc1 [LSM 83177, 3,4-dichloro-4'-(carboxymethoxy)chalcone]",leads to a radiosensitization in MCF-7 ADR cells,"7,7 µg/ml"
"C=C(CC)C(=O)c1ccc(OCC(=O)O)c(Cl)c1Cl [ethacrynic acid, reference compound]",does not mediate any radiosensitization,

# Source: patent EP0947511A1, “Derivatives of phenoxy acetic acid and of phenoxymethyl tetrazole having antitumor activity” (F. HOFFMANN-LA ROCHE AG, priority 1998, dated 1999)
